Activity calls are given as the source filed them. The calls are words filed in the database; no cut-off is given here.
Legend:
Histone deacetylase 4 = Histone deacetylase 4 (Homo sapiens, UniProt P56524); assay: Inhibition of human recombinant HDAC4 using fluorophore-conjugated substrate Boc-L-Lys(Ac)-AMC after 60 mins
Histone deacetylase 11 = target: T1, Histone deacetylase 11 (Homo sapiens, UniProt Q96DB2); assay: Inhibition of human recombinant HDAC11 using fluorophore-conjugated substrate Boc-L-Lys(Ac)-AMC after 60 mins
T1 sequence (Q96DB2 whole entry): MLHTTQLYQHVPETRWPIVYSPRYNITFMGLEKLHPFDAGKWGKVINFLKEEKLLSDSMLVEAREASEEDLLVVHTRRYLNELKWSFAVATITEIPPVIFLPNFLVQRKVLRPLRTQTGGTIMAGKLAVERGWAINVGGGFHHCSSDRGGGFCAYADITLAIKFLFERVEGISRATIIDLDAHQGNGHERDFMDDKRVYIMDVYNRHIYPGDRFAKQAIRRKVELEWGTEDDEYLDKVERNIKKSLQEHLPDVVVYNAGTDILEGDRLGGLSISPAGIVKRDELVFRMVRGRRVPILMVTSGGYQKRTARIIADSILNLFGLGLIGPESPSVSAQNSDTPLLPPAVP

[1] = target: T2, Polyamine deacetylase HDAC10 (Homo sapiens, UniProt Q969S8); assay: Inhibition of human recombinant HDAC10 using fluorophore-conjugated substrate Boc-L-Lys(Ac)-AMC after 60 mins
T2 sequence (Q969S8 whole entry): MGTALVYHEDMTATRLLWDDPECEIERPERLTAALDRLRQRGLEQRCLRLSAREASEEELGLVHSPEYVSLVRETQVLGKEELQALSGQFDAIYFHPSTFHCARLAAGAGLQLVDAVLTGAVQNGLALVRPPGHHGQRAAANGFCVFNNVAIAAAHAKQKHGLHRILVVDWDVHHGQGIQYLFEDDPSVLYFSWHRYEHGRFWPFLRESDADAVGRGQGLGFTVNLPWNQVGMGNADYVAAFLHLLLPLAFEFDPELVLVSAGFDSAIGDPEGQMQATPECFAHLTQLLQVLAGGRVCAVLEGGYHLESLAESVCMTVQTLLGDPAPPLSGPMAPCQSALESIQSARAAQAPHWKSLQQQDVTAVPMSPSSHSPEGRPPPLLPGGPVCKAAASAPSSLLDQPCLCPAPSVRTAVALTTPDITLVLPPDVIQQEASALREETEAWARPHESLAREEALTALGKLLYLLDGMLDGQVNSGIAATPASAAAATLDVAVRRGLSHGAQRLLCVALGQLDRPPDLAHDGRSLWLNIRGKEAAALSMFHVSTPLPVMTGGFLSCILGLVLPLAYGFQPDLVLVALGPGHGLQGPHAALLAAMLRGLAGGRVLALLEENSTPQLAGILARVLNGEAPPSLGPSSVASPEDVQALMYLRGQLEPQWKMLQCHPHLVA

[2] = target: Histone deacetylase 3/Nuclear receptor corepressor 2 (HDAC3/NCoR2) (Homo sapiens, UniProt O15379); assay: Inhibition of human recombinant HDAC3/NCoR2 using fluorophore-conjugated substrate Boc-L-Lys(Ac)-AMC; assay type: protein-complex assay
[3] = target: T3, Histone deacetylase (Homo sapiens) (UniProt Q13547+O15379+Q9UBN7+Q92769+Q9UQL6+Q8WUI4+Q9BY41+Q96DB2+P56524+Q9UKV0+Q969S8); assay: Inhibition of HDAC in retinoic acid-differentiated human SH-SY5Y cells assessed as increase in histone H4 acetylation at 1 uM after 24 hrs by Western blot analysis; assay type: cell-based
[4] = target: T3, Histone deacetylase (Homo sapiens); assay: Inhibition of HDAC in retinoic acid-differentiated human SH-SY5Y cells assessed as increase in histone H4 acetylation at 1 uM after 24 hrs by Western blot analysis in presence of 100 uM LY294002; assay type: cell-based
HeLa = assay: cells; assay type: functional, cell-based; conditions: Homo sapiens, 48 h
Histone deacetylase 9 = Histone deacetylase 9 (Homo sapiens, UniProt Q9UKV0); assay: Inhibition of human recombinant HDAC9 using fluorophore-conjugated substrate Boc-L-Lys(Ac)-AMC after 60 mins
HepG2 = assay: cells; assay type: functional, cell-based; conditions: Homo sapiens, HepG2, 72 h
Histone deacetylase 8 = target: T4, Histone deacetylase 8 (Homo sapiens, UniProt Q9BY41); assay: Inhibition of human recombinant HDAC8 using Fluor de Lys as substrate
T4 sequence (Q9BY41 whole entry): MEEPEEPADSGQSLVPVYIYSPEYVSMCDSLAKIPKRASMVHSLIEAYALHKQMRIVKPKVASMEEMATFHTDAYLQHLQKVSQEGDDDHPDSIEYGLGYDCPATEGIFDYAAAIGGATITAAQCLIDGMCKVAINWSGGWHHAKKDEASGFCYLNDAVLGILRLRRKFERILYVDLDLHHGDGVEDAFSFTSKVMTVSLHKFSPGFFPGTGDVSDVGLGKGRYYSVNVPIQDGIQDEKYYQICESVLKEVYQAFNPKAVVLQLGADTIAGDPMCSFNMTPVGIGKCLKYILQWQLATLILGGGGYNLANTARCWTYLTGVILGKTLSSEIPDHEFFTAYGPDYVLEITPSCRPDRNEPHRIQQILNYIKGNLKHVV

Sequence of Histone deacetylase 4 (P56524 whole entry): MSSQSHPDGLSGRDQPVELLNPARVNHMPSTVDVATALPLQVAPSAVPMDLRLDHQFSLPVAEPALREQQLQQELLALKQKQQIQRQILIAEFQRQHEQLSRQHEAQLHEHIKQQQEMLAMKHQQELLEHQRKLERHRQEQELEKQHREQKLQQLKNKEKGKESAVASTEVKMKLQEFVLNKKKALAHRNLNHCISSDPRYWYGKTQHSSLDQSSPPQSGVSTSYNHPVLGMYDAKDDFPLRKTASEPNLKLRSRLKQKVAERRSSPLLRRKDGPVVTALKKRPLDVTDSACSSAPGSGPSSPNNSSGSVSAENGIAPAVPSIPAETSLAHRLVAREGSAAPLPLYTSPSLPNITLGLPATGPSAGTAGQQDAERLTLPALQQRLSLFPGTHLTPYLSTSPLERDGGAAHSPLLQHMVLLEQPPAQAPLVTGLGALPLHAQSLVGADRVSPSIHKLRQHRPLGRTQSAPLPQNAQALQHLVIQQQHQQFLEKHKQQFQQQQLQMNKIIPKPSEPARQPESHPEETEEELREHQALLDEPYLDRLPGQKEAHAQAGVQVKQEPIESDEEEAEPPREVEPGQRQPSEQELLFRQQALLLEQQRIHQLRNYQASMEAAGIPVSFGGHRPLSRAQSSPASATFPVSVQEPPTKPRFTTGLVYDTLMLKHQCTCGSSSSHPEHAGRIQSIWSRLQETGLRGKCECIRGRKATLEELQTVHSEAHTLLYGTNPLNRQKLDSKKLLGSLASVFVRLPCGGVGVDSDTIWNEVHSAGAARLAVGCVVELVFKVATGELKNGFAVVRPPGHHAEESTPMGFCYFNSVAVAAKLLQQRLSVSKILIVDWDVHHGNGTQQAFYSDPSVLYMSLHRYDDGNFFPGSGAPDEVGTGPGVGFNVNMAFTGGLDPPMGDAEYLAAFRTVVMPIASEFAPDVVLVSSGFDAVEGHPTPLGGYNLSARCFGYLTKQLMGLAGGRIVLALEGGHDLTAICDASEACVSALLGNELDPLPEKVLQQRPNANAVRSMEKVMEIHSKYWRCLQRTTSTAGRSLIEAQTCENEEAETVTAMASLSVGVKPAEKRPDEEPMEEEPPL
Sequence of Histone deacetylase 9 (Q9UKV0 whole entry): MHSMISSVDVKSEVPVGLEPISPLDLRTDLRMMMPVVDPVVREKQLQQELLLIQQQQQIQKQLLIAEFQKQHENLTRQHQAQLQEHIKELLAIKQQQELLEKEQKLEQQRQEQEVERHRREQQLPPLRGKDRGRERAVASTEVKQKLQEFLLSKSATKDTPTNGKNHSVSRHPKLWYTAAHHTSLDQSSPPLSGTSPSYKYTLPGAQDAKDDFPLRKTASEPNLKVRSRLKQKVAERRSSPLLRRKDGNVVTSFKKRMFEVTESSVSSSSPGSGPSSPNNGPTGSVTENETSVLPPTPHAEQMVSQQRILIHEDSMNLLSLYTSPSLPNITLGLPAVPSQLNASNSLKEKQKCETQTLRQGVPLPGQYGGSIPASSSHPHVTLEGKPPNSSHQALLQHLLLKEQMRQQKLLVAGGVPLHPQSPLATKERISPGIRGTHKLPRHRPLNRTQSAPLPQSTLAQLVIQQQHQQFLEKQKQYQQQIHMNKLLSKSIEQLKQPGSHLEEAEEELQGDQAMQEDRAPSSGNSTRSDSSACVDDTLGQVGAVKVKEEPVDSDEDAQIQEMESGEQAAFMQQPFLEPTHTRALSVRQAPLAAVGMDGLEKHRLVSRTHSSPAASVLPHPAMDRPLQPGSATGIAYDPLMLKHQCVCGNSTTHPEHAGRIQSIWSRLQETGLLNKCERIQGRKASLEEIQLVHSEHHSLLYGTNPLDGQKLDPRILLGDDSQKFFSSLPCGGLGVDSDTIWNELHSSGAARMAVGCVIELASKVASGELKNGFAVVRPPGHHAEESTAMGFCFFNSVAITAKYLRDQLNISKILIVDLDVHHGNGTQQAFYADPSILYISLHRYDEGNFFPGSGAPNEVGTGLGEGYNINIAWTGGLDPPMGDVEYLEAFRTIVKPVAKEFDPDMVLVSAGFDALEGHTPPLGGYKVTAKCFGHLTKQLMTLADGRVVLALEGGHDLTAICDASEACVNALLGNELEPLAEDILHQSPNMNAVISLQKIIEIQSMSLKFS
Sequence of Histone deacetylase 3/Nuclear receptor corepressor 2 (HDAC3/NCoR2) (O15379 whole entry): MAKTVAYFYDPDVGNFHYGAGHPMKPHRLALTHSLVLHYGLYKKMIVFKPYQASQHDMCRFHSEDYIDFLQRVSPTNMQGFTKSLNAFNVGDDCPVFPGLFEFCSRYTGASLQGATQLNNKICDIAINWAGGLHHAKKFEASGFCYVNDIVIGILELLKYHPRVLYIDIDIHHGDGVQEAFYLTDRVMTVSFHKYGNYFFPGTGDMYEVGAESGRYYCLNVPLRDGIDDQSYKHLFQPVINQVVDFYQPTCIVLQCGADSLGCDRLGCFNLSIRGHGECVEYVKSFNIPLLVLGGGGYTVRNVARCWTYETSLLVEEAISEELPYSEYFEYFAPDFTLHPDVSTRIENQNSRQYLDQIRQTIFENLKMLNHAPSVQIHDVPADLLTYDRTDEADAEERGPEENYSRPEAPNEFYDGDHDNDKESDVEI
Sequence of Histone deacetylase 3/Nuclear receptor corepressor 2 (HDAC3/NCoR2) (Q9Y618 whole entry, further chain): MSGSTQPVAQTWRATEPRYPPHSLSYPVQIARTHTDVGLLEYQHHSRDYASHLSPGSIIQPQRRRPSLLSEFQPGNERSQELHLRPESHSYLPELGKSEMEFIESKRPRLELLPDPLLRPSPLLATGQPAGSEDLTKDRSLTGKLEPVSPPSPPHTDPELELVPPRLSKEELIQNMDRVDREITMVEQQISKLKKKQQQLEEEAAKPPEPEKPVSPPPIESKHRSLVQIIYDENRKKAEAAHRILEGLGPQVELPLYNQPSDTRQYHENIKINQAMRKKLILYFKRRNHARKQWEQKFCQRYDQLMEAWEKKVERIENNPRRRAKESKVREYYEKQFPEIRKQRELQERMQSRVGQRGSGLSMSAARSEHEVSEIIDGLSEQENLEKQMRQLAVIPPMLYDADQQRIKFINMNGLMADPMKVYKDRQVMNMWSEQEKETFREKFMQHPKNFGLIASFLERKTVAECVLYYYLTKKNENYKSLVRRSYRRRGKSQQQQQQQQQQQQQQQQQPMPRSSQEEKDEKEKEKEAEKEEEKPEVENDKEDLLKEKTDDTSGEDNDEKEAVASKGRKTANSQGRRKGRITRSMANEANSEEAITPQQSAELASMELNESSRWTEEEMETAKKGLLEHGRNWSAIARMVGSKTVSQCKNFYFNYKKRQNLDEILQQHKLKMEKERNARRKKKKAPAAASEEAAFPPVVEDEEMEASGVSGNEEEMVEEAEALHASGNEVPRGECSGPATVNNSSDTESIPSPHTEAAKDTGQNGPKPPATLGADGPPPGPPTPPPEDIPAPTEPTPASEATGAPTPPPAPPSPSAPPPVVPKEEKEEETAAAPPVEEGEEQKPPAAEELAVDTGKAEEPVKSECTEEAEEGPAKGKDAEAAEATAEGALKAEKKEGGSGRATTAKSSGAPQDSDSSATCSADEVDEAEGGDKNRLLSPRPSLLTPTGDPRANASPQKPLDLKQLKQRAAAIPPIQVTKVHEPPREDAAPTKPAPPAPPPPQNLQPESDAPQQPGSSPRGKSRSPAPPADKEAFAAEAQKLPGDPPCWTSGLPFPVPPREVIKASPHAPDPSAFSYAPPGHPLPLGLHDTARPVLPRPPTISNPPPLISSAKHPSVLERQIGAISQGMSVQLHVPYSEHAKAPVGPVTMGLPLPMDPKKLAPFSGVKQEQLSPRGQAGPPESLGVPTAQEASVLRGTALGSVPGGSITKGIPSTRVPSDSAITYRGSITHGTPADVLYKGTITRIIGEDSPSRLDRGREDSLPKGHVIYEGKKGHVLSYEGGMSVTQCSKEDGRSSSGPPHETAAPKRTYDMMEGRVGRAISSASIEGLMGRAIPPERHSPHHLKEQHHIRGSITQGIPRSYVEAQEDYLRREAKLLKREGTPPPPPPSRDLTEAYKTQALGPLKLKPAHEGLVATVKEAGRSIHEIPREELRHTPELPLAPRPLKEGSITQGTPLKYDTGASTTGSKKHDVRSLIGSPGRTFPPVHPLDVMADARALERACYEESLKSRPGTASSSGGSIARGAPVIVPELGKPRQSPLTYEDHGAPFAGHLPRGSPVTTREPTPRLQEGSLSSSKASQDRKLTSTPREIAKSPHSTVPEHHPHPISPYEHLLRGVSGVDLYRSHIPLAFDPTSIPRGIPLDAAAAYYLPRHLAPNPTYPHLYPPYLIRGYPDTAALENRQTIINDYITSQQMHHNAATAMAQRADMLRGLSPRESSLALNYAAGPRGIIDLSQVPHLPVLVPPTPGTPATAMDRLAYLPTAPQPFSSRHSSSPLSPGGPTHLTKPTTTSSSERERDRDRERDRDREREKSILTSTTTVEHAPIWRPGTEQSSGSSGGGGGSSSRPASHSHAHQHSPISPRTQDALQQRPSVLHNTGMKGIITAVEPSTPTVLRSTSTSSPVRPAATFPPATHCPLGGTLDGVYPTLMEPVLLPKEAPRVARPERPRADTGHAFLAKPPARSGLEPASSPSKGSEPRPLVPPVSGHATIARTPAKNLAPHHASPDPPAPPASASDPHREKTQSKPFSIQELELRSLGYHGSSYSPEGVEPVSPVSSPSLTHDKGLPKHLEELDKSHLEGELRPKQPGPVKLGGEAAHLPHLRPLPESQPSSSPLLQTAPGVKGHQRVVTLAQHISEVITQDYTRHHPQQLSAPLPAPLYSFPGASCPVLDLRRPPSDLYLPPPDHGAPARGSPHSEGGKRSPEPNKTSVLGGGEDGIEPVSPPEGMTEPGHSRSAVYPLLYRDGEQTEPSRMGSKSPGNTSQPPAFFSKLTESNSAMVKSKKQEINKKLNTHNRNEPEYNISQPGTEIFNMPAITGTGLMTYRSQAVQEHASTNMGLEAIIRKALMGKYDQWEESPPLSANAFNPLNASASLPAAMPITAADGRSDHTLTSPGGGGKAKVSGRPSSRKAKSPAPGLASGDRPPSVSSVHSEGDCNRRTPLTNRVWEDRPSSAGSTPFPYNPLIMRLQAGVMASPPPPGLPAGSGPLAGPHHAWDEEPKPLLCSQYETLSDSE

IC50 (Histone deacetylase 4) | IC50 (Histone deacetylase 11) | IC50 [1] | IC50 [2] | inhibition [3] | inhibition [4] | EC50 (HeLa) | IC50 (Histone deacetylase 9) | EC50 (HepG2) | IC50 (Histone deacetylase 8) | Compound
379 nM | 476 nM | 140 nM | 128 nM | Active | Active | 23.7 µM | 704 nM | 13.4 µM | 17 nM | [N-]=[N+]=NCc1cc(Cn2cc(NC(=O)CCCCCCC(=O)NO)cn2)cc(N=[N+]=[N-])c1
432 nM | 116 nM | 776 nM | 45 nM | Active | Active | 10.7 µM | 37.8 nM | 4.9 µM | 651 nM | [N-]=[N+]=NCc1cc(N=[N+]=[N-])cc(C(=O)Nc2ccc(-c3cc(C(=O)NCCCCCCC(=O)NO)no3)cc2)c1

Reference: ChEMBL document CHEMBL1914352, “Design, synthesis, docking, and biological evaluation of novel diazide-containing isoxazole- and pyrazole-based histone deacetylase probes” (J Med Chem, 2011)
